What was measured:
[1] = test system: decerebrate rigidity induced by radio frequency lesions of rat brains; experiment: Decerebrate rigidity remission action (method of Ono et al.); type: in vivo, Wistar male rat; details: i.v., tension before administration = 100%
Description: Pharmacol., 18, 57 (1987)], the rigidity remission action of the optically active aminoketone derivative of the present invention for the decerebrate rigidity induced by radio frequency lesions of rat brains was investigated.
Each Wistar male rat (body weight: 300-400 g) was anesthetized with ether and then fixed on a stereotaxic apparatus. In accordance with the Pellegrino's stereotaxic brain atlas, the electrodes of a lesion generator (manufactured by Radionics Company) were punctuated to AP: 0, L: ±1.5, V: -3. […] The rigidified rat was fixed in the abdominal position, and the tension of each extension reflex of the extensor of the hind limbs was recorded. Assuming that the tension before the administration was 100%, the rate of rigidity inhibition is expressed in terms of percentage: (100 -(Tension after administration)/(Tension before administration)× 100) [formula]
The test compounds were intravenously administered at 3 and 6 mg/kg.

[2] = test system: skeletal muscle afferent discharge; experiment: Action to skeletal muscle afferent discharge (musculus triceps surae nerve fiber); type: in vivo, Wistar rats; details: i.v., rat, discharge frequency before administration = 100%, tension of 20 g
Description: The musculus triceps surae was separated from each of Wistar rats (9 to 10 weeks old; Japanese rats) under a mixed anesthetic of urethane and α-chlorarose. There were cut out all the branches of the sciatic nerve except the branch which controls the musculus triceps surae. The medulla spinalis was subjected to laminectomy, and roots of L6 or less were cut out. […] A nerve fiber coming from the musculus triceps surae was only separated from the L5 posterior root. A tension of 20 g was applied to the peripheral end of the musculus triceps surae, and each discharge frequency of the nerve was recorded. Assuming that the discharge frequency before the administration is 100%, the discharge frequency of the nerve was expressed in terms of percentage: (100 -(Discharge frequency at most inhibition)/(Discharge frequency before administration)× 100) [formula]
The test compounds were intravenously administered at 6 and 12 mg/kg.

[3] = Acute toxicity; type: in vivo; details: mouse, in vivo, ip, intraperitoneally administered; mice observed 72 hours later
Method: (§1) ddy Male mice (body weights: 25-30 g) were used. Each test compound was intraperitoneally administered, and 72 hours later, the mice were observed as to whether they were alive or dead.
(§2) 50% lethal doses LD50 (mg/kg) were calculated.

[4] = test system: ddy Male mice; experiment: Acute toxicity; type: in vivo; details: intraperitoneally administered; mice observed 72 hours later; 4320 min
Method: as §1, §2

| Structure (SMILES) | Rigidity Inhibition (%) ([1]; 3 mg/kg) | Rigidity Inhibition (%) ([1]; 6 mg/kg) | Discharge Frequency (%) ([2]; 6 mg/kg) | Discharge Frequency (%) ([2]; 12 mg/kg) | LD50 at 72 h [3] [mg/kg] | LD50 [4] [mg/kg] |
| --- | --- | --- | --- | --- | --- | --- |
| CCC(CN1CCCC1)C(=O)c1cc(-c2ccccc2)no1 (racemic) [racemic form, 3-phenyl-5-[2-(1-pyrrolidinylmethyl)butyryl]isoxazole, reference compound] | 56 | 65 | 46 | 27 | 445 | – |
| CCC(CN1CCCC1)C(=O)c1cc(-c2ccccc2)no1 (single isomer, unassigned; (+)) [(+) form, (+)-3-phenyl-5-[2-(1-pyrrolidinylmethyl)butyryl]isoxazole] | 59 | 78 | 28 | 14 | 386 | – |
| CCC(CN1CCCC1)C(=O)c1cc(-c2ccccc2)no1 (single isomer, unassigned; (-)) [(-) form, (-)-3-phenyl-5-[2-(1-pyrrolidinylmethyl)butyryl]isoxazole] | 33 | 53 | 83 | – | – | 760 |
